Patent US7795378B2, “Peptide compositions for treatment of sexual dysfunction” (Palatin Technologies, Inc., priority 2002, dated 2010)
Where a SMILES comes first, the peptide text is derived from it. [ ]: non-standard residue; d: D form. The star is where a group is joined. dPhe(4-Cl) = N[C@H](Cc1ccc(Cl)cc1)C(=O)O; Ahp = NCCCCCCC(=O)O; Bn = c1ccc(C*)cc1

Columns and labels:
male Sprague-Dawley rats = assay: Induction of penile erections in male rats; assay type: in vivo, rat
Protocol: The ability of the peptides of Examples 1 to 13 to induce penile erection in male rats was evaluated. Male Sprague-Dawley rats weighing 200-250 g were kept on a 12 hour on/off light cycle with food and water ad libitum. All behavioral studies were performed between 10 a.m. and 5 p.m. Groups of 4-8 rats were treated with peptides at a variety of doses via intravenous administration. Immediately after administration, rats were placed into individual polystyrene cages (27 cm long, 16 cm wide, and 25 cm high) for behavioral observation.
The efficacious dose of NH2—(CH2)6CO-Ser(Bzl)-D-Phe(4-Cl)-Arg, made as in Example 1 above, to induce penile erection in Sprague Dawley rats by intravenous dosing and oral administration was determined. […] NH2—(CH2)6CO-Ser(Bzl)-D-Phe(4-Cl)-Arg was efficacious at doses as low as 0.1 to 1 μg/kg of body weight when administered by oral means, and at doses lower than 0.001 μg/kg of body weight when administered by intravenous means.
The efficacious dose of NH2—(CH2)6—CO-Ser(Bzl)-D-Phe(4-Cl)-Arg(NO2), made as in Example 5 above, to induce penile erection in Sprague Dawley rats by intravenous dosing was determined. […] It was determined that NH2—(CH2)6—CO-Ser(Bzl)-D-Phe(4-Cl)-Arg(NO2) was efficacious at doses as low as 0.001 to 10 μg/kg of body weight when administered by intravenous means, with efficacy determined by induction of penile erection in 100% of animals. The optimal dose response was at 1 μg/kg of body weight. FIG. 1 depicts the dose response profile, with the error bars depicting standard deviation where n (the number of animals) is between 8 and 19, depending on the dose point.
The efficacious dose of NH2—(CH2)6—CO-Ser(Bzl)-D-Phe(4-Cl)-Arg(NO2), made as in Example 5 above, to induce penile erection in Sprague Dawley rats by intranasal administration using a micropipetor to deliver 25 μL of solution into one nostril was determined. […] It was determined that NH2—(CH2)6—CO-Ser(Bzl)-D-Phe(4-Cl)-Arg(NO2) was efficacious at doses between 0.01 μg/kg and 100 μg/kg of body weight when administered by intranasal means. The peak dose response was at an intranasal dose of 0.1 μg/kg of body weight.

hMC3-R = molecular target: T1, hMC3-R (Homo sapiens, UniProt P41968); assay: Competitive inhibition binding assay with 125I-NDP-MSH, MC3 receptor; settings: 10 μM peptide, 0 assigned when raw inhibition between −10% and 10%, read-out: % Inhibition at 10 μM concentration at MC3-Receptor
T1 construct: expressed in transfected cells; host or cells: HEK 293 cells (membranes)
T1 sequence (P41968 whole entry): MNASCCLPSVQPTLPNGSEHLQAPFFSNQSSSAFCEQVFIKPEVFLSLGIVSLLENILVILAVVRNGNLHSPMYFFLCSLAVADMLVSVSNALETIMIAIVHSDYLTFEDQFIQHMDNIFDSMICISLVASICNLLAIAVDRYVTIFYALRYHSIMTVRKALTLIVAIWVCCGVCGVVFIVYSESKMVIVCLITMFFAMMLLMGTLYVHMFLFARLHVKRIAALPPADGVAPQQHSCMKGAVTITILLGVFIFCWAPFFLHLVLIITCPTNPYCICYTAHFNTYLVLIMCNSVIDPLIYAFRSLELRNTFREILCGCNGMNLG
Protocol: (§1) Competitive inhibition binding assay was conducted using membranes prepared from hMC3-R, hMC4-R, hMC5-R, and B-16 mouse melanoma cells (containing MC1-R) using 0.4 nM ^125I-NDP-MSH (0.2 nM for MCL-R) (New England Nuclear, Boston, Mass., USA) in 50 mM HEPES buffer containing 1 mM MgCl2, 2 mM CaCl2, and 5 mM KCl, at pH 7.2. The assay tube also contained a chosen concentration of the peptides of this invention, for determining inhibition of the binding of ^125I-NDP-MSH to its receptor. Non-specific binding was measured by complete inhibition of binding of ^125I-NDP-MSH in the assay in the presence of 1 μM α-MSH. Incubation was for 90 minutes at 37° C., after which the assay mixture was filtered and the membranes washed three times with ice cold buffer. The filter was dried and counted in a gamma counter for remaining radioactivity bound to the membranes. 100% specific binding was defined as the difference in radioactivity (cpm) bound to cell membranes in the absence and presence of 1 μM α-MSH. The cpm obtained in the presence of peptides of this invention were normalized with respect to 100% specific binding to determine the percent inhibition of ^125I-NDP-MSH binding. Each assay was conducted in triplicate.
(§2) The binding of the peptides of Examples 1 to 13, inclusive, to melanocortin receptors was evaluated, with results shown on Table 1. Relative binding was determined by competitive inhibition using an α-MSH analog, iodinated NDP-MSH. B16-Fl mouse melanoma cells were used as the source of MC1 receptors and HEK 293 cells, transfected with human melanocortin receptor sequences, were used as the source of MC3, MC4 and MC5 receptors. A standard competitive binding assay protocol as described above was followed, using ^125I-NDP-MSH as the radioligand. A “0” percent inhibition was assigned when the raw percent inhibition, as an average of at least triplicate measures, was between −10% and 10%; in the majority of instances, the raw percent inhibition was between −10% and 0% inhibition.

hMC4-R = molecular target: T2, hMC4-R (Homo sapiens, UniProt P32245); assay: Competitive inhibition binding assay with 125I-NDP-MSH, MC4 receptor; settings: 10 μM peptide, 0 assigned when raw inhibition between −10% and 10%, read-out: % Inhibition at 10 μM concentration at MC4-Receptor
T2 construct: expressed in transfected cells
T2 sequence (P32245 whole entry): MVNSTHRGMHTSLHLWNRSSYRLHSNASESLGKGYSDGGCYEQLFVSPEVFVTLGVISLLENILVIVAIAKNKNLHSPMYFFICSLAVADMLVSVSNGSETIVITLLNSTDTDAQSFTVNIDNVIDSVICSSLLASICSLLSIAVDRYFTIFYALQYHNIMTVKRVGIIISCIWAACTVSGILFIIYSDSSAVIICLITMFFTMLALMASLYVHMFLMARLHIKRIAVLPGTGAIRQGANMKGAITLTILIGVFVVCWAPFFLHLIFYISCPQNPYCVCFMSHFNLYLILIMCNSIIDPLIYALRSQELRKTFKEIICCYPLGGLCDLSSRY
Protocol: as §1, §2

[1] = molecular target: T3, MC1-R (B16-F1 mouse melanoma cells) (Mus musculus, UniProt Q01727); assay: Competitive inhibition binding assay with 125I-NDP-MSH, MC1 receptor; settings: 10 μM peptide, 0 assigned when raw inhibition between −10% and 10%, read-out: % Inhibition at 10 μM concentration at MC1-Receptor
T3 construct: B-16 mouse melanoma cells (containing MC1-R); endogenous in cells; host or cells: B16-F1 mouse melanoma cells (membranes)
T3 sequence (Q01727 whole entry): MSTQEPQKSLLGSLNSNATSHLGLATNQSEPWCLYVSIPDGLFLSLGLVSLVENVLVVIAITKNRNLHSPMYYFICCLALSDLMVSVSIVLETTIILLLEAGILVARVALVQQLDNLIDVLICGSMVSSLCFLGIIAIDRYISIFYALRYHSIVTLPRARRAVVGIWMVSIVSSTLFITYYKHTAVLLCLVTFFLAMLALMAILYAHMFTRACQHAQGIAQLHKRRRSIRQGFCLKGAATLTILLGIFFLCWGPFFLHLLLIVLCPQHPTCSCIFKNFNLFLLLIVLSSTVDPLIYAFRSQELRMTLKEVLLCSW
Protocol: as §1, §2

[2] = tested on: panel of known central and peripheral receptors and neurotransmitters, ion channels and enzymes systems; assay: Receptor specificity screening panel; assay type: binding; settings: 10 μM concentration
Protocol: The peptide NH2—(CH2)6CO-Ser(Bzl)-D-Phe(4-Cl)-Arg was tested at 10 μM concentration for binding to a panel of known central and peripheral receptors and neurotransmitters, including steroid receptors, neurotransmitter receptors, brain/gut peptide receptors, growth factor/hormone receptors and other receptors, and for interaction with a panel of known ion channels and enzymes systems.

hMC5-R = molecular target: T4, hMC5-R (Homo sapiens, UniProt P33032); assay: Competitive inhibition binding assay with 125I-NDP-MSH, MC5 receptor; settings: 10 μM peptide, 0 assigned when raw inhibition between −10% and 10%, read-out: % Inhibition at 10 μM concentration at MC5-Receptor
T4 construct: expressed in transfected cells; host or cells: HEK 293 cells (membranes)
T4 sequence (P33032 whole entry): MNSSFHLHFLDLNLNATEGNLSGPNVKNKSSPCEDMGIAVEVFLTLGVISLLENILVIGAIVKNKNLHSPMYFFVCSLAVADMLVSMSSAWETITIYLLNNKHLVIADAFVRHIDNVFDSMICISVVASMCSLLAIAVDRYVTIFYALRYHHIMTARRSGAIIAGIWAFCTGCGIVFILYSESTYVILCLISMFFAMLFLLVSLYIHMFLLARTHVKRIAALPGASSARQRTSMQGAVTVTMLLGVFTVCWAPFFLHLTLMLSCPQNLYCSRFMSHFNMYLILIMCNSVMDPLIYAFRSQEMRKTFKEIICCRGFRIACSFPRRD
Protocol: as §1, §2

male rats = assay: Induced penile erections after pre-administration of MC4-R antagonist SHU9119; assay type: in vivo, rat; settings: SHU9119 approximately 5 minutes before peptide
Excerpt: It is known that MC4-R antagonists inhibit the erectile activity of MC4-R agonists in a dose dependent manner. Such antagonists include SHU9119, a nonselective melanocortin antagonist of the formula Ac-Nle-cyc/o(-Asp-His-D-Nal(2′)-Arg-Trp-Lys)-NH2 (Hruby V. J., Lu D., Sharma S. D., et al. Cyclic lactam alpha-melanotropin analogues of Ac-Nle^4-cyclo[Asp^5, D-Phe^7, Lys^10]-NH2 with bulky aromatic amino acids at position 7 show high antagonist potency and selectivity at specific melanocortin receptors. J Med Chem 38:3454-3461 (1995)). Antagonists such as SHU9119 are known to inhibit MT-II and other known melanocortin receptor-specific agonists that induce erectile activity. SHU9119 was administered to male rats approximately 5 minutes before administration of either NH2—(CH2)6CO-Ser(Bzl)-D-Phe(4-Cl)-Arg or NH2—(CH2)6CO-Ser(Bzl)-D-Phe(4-Cl)-Arg-Trp-NH2, with Ac-Nle-cyc/o(Asp-His-D-Phe-Arg-Trp-Lys)-OH, a known MC4-R agonist, as a positive control.

N=C(N)NCCC[C@H](NC(=O)[C@@H](Cc1ccc(Cl)cc1)NC(=O)[C@H](COCc1ccccc1)NC(=O)CCCCCCN)C(=O)O [NH2—(CH2)6—CO-Ser(Bzl)-D-Phe(4-Cl)-Arg, NH2—(CH2)6CO-Ser(Bzl)-D-Phe(4-Cl)-Arg] (H-[Ahp]S(Bn)[dPhe(4-Cl)]R-OH)
human dose for oral delivery, extrapolated (could be as low as) (male Sprague-Dawley rats; extrapolated from rat to human, oral): 1 mg | efficacious dose to induce penile erection, intravenous (male Sprague-Dawley rats; male Sprague Dawley rats, intravenous): lower than 0.001 μg/kg | oral dose at which peptide may be biologically active (as low as) (male Sprague-Dawley rats; male rats, oral): 250 ng/kg | inhibition at 10 µM (hMC3-R): 0% | inhibition at 10 µM (hMC4-R): 0% | inhibition at 10 µM [1]: 0% | binding or activity at panel members [2]: No binding or activity | inhibition at 10 µM (hMC5-R): 0% | effect of SHU9119 pre-administration on induced erections (male rats): resulted in erections at a rate equivalent to that obtained without pre-administration of SHU9119
